Measurements published in US20180168208A1 (priority 2014, published 2018).
Structures can show the parent of a compound that is named as a salt. Where two headings read alike, the source gives them in different places.

How the values were obtained:
T1R1/T1R3 receptor [1] = biological target: T1, T1R1/T1R3 receptor (Felis catus, UniProt E3UMS2); test: Example 8: agonist screening of transmembrane compounds on T1R1/T1R3 in HEK293 cells; assay type: cell-based, cat; settings: transmembrane compound alone
Description: (§1) HEK293 cells that stably express T1R3 and inducibly express T1R1 were exposed to a transmembrane compound. Activation of the T1R1/T1R3 receptor was detected by a change in intracellular calcium levels using a calcium sensitive fluorescent dye and/or a luminescent reporter system. […] A FLIPR® Tetra or a FlexStation® 3 was used for data capture.
Each transmembrane compound was tested at concentrations of 0.01 mM, 0.1 mM, and 1 mM. […] To generate the dose response curves, the transmembrane compound was tested at concentrations of between 0.0001 mM and 1.0 mM in the presence of GMP and Ala.
Target sequence in this assay (E3UMS2 entry or part of it, one chain of several): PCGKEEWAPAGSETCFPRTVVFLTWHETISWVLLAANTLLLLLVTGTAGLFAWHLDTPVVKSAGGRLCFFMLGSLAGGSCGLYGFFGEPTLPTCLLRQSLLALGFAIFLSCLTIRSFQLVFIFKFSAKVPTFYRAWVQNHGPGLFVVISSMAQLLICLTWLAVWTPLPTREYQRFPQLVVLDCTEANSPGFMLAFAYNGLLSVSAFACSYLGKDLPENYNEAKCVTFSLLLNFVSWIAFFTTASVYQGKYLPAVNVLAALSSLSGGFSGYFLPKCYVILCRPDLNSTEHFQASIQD

T1R1/T1R3 receptor [2] = biological target: T1, T1R1/T1R3 receptor; test: Example 8: PAM screening of transmembrane compounds with GMP and Ala on T1R1/T1R3 in HEK293 cells; assay type: cell-based, cat; settings: in the presence of GMP and Alanine
From the text: as §1, with “to” for “to a”, “compound alone or in combination with Ala and GMP to activate the umami receptor.” for “compound.”
Target sequence in this assay (E3UMS2 entry or part of it, one chain of several): as above
Dose response curves were generated for each transmembrane compound at concentrations of 0 (buffer only), 0.01, 0.1 and 1 mM, wherein each of the three concentrations of transmembrane compound was tested in combination with 0.03 mM GMP+100 mM Ala (T1); 0.6 mM GMP+10 mM Ala (T2); 0.1 mM GMP+60 mM Ala (T3) and 0.3 mM GMP+60 mM Ala (T4). The T4 mixture was also tested in a 2-fold dilution series (the T4(×) Concentration). In these experiments, the first test concentration was 2× (2 times) the T4 concentration. The subsequent test concentrations were 2-fold dilutions from that (1×, 0.5×etc.). This dilution series was tested with or without the addition of the test compound at a constant 0.3 mM concentration.
Activation of the umami receptor was also determined in the presence of 1 mM GMP+100 mM Ala to generate a “maximum” umami receptor activation level.

T1R1/T1R3 receptor [3] = biological target: T1, T1R1/T1R3 receptor; test: Example 6: activation of T1R1/T1R3 by transmembrane compounds, conducted as in Example 5; assay type: cell-based
From the text: HEK293 cells that stably express T1R3 and inducibly express T1R1 were exposed to transmembrane compounds alone or in combination with one or more amino acids and/or one or more nucleotides to activate the umami receptor. Activation of the T1R1/T1R3 receptor was detected by a change in intracellular calcium levels using a calcium sensitive fluorescent dye. Cells that express T1R3 but not T1R1 were used as a control. A FLIPR® Tetra or a FlexStation® 3 was used for data capture.
In each experiment, serial dilutions of up to 10 mM of the transmembrane compound were added to the T1R1/T1R3-expressing cells.

T1R1/T1R3 receptor [4] = biological target: T1, T1R1/T1R3 receptor; test: cell-based; settings: for Max resp % of Ala, +IMP (0.2 mM): relative to alanine; for Thres (mM), +IMP (0.2 mM): threshold concentration in the presence of 0.2 mM IMP
Outline: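 HEK293 cells stably expressing T1R3 with inducible T1R1 were given transmembrane compounds in serial dilutions up to 10 mM, alone or with amino acids and/or nucleotides. Receptor activation was read as an intracellular calcium change with a calcium-sensitive fluorescent dye; T1R3-only cells served as control.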

cat T1R1/T1R3 receptor [5] = biological target: T2, cat T1R1/T1R3 receptor (Felis catus, UniProt A0ABI7Z2I4); test: cell-based
T2 sequence (A0ABI7Z2I4 171-420): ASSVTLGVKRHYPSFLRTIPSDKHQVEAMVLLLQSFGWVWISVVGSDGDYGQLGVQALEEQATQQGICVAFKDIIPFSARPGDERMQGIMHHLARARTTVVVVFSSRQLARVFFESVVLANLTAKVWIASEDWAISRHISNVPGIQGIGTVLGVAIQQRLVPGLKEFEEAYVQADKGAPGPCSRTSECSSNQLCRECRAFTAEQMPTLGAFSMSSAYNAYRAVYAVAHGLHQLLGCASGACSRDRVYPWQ
T2 sequence (Q49KI5 25-865 E206Q/N523D/F654L partner): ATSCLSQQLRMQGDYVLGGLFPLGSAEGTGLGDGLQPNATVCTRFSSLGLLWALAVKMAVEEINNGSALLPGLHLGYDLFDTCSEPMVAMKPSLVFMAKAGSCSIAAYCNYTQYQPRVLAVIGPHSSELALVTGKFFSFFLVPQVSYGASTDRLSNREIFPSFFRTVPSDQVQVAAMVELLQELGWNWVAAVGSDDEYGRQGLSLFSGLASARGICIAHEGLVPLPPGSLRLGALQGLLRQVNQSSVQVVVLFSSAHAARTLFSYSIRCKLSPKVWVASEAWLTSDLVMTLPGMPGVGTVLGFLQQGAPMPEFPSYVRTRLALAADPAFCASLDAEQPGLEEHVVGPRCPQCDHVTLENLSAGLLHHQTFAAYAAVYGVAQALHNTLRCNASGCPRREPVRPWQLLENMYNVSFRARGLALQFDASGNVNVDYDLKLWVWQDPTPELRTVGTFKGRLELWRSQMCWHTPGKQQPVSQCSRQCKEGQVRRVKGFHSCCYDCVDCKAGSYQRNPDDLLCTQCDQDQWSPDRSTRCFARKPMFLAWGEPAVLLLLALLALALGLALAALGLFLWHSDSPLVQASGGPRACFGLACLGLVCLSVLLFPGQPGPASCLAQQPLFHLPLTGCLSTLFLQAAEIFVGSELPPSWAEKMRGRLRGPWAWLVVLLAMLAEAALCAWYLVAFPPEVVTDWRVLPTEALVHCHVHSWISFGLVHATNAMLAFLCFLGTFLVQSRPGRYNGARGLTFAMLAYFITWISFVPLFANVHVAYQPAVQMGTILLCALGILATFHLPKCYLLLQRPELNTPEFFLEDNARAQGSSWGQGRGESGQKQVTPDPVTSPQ
Description: […] Activation of the T1R1/T1R3 receptor was detected by a change in intracellular calcium levels using a calcium sensitive fluorescent dye. Cells that express T1R3 but not T1R1 were used as a control. A FLIPR® Tetra or a FlexStation® 3 was used for data capture.
In each experiment, serial dilutions of up to 0.1 mM, 1 mM or 10 mM of the nucleotide derivative were added to the T1R1/T1R3-expressing cells.

cat T1R1/T1R3 receptor [6] = biological target: T2, cat T1R1/T1R3 receptor; test: cell-based; remark: listed apart in the source
Outline: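 HEK293 cells stably expressing T1R3 with inducible T1R1, treated with nucleotide derivatives alone or combined with amino acids and/or nucleotides. Activation read as intracellular calcium change by calcium-sensitive fluorescent dye and/or luminescent reporter. Cells expressing T1R3 without T1R1 served as control.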

[7] = with 20 mM alanine, read-out: EC50- with Ala

## COC(=O)[C@@H](Cc1ccccc1)NCc1ccccc1.Cl [N-Benzyl-D-Phenylalanine methyl ester hydrochloride]
T1R1/T1R3 receptor [1]
  agonist profile assessment (agonist activity): agonist
T1R1/T1R3 receptor [2]
  PAM profile assessment (PAM activity): PAM activity

## COC(=O)[C@H](Cc1ccccc1)NCc1ccccc1 [N-benzyl-L-phenylalanine methyl ester HCl]
T1R1/T1R3 receptor [3]; T1R1/T1R3 EC50 +20 mM L-alanine, +20 mM L-alanine
  EC50: 50 ± 1 µM
T1R1/T1R3 receptor [3]; T1R1/T1R3 EC50 alone in buffer, alone in buffer
  EC50: 30 ± 2 µM

## COC(=O)[C@H](Cc1ccccc1)NCc1ccccc1.Cl [N-benzyl-L-phenylalanine methyl ester hydrochloride]
T1R1/T1R3 receptor [1]
  agonist profile assessment (agonist activity): agonist
T1R1/T1R3 receptor [2]
  PAM profile assessment (PAM activity): PAM activity
T1R1/T1R3 receptor [4]
  Max resp % of IMP, +Alanine (20 mM): 273.4%
  Thres (mM), +Alanine (20 mM): 0.01 mM
  Thres (mM), +IMP (0.2 mM): 0.003 mM
T1R1/T1R3 receptor [4]; in the presence of 0.2 mM IMP
  Max resp ΔF/F, +IMP (0.2 mM): 2.2500 ΔF/F
  Max resp % of Ala, +IMP (0.2 mM): 289.4%

## Nc1ncnc2c1ncn2C1OC(COP(O)(O)=S)C(O)C1O (stereo not shown) [adenosine 5′-O-thiomonophosphate, Adenosine 5′-O-thiomonophosphate]
Cat T1R1/T1R3 receptor [5]; test compound alone (in buffer), read-out: EC50- alone
  EC50: > 1000 µM
Cat T1R1/T1R3 receptor [5]; [7]
  EC50: 60 µM

## C[C@H](N)C(=O)O [alanine]
Cat T1R1/T1R3 receptor [6]
  EC50: 13600 ± 4300 µM
T1R1/T1R3 receptor [4]; EC50 (effect with 0.2 mM IMP)
  EC50: 12.3 ± 1.3 mM
T1R1/T1R3 receptor [4]; EC50 (mM), +IMP (0.2 mM)
  EC50: 12.3 mM
T1R1/T1R3 receptor [4]; in the presence of 0.2 mM IMP
  Max resp % of Ala, +IMP (0.2 mM): 100.0%
T1R1/T1R3 receptor [4]
  Thres (mM), +IMP (0.2 mM): 3.0 mM
Cat T1R1/T1R3 receptor [5]; EC50- alone
  EC50: 13600 µM

## O=c1nc[nH]c2c1ncn2C1O[C@H](COP(=O)(O)OP(=O)(O)OP(=O)(O)O)[C@@H](O)[C@H]1O (stereo partly shown) [inosine triphosphate (ITP) trisodium salt]
Cat T1R1/T1R3 receptor [6]
  Activity: active
  EC50: 80 µM
  Max resp. (ΔF/F): 0.3 ΔF/F
  Max. resp. % of IMP: 25.1 % of IMP
  Threshold: 0.02 mM
Cat T1R1/T1R3 receptor [5]; [7]
  EC50: 80 ± 10 µM
